ChEMBL document CHEMBL1201862, “PubChem BioAssay data set” (2004)
The source made the active and inactive calls.

Assays:
[1] = molecular target: ATP-dependent molecular chaperone HSP82 (Candida albicans (strain WO-1) (Yeast), UniProt C4YTQ8); experiment: steroid-induced GRE reporter decrease in yeast – S. cerevisiae, luminescence, Hsp90 inhibitor project, dose response (AID 2400); type: functional, cell-based;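 note: beta-galactosidase luminescence from glucocorticoid response element reporter as proxy for Hsp90 function; inhibitor potency where signal loss means Hsp90 inhibition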
Chain of ATP-dependent molecular chaperone HSP82 (C4YTQ8 whole entry): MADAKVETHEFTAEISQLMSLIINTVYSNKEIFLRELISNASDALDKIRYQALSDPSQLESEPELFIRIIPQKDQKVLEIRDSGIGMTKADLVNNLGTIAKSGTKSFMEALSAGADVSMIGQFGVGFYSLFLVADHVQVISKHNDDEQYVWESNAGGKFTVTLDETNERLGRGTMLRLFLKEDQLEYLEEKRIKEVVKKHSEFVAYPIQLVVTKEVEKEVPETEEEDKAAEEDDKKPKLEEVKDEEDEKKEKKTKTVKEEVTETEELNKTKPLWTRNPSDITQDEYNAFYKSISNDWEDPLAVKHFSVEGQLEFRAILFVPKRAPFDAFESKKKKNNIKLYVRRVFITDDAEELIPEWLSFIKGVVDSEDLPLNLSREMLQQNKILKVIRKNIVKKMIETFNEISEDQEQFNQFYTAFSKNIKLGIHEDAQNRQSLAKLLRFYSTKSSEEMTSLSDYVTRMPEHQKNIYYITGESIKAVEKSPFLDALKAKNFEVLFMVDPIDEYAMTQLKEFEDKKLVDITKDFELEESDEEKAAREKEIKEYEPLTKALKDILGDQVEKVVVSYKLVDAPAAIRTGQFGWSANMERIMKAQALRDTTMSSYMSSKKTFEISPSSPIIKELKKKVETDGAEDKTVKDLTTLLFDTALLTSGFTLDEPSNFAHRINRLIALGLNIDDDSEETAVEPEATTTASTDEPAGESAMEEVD

[2] = molecular target: T1, Probable nicotinate-nucleotide adenylyltransferase (Staphylococcus aureus (strain N315), UniProt P65502); type: functional, Staphylococcus aureus subsp. aureus N315; conditions: read-out: IC50_Mean;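 for IC50 Mean: confirmatory dose-response retesting of NadD inhibitor hits first found in an ultra-high-throughput screen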
T1 sequence (P65502 whole entry): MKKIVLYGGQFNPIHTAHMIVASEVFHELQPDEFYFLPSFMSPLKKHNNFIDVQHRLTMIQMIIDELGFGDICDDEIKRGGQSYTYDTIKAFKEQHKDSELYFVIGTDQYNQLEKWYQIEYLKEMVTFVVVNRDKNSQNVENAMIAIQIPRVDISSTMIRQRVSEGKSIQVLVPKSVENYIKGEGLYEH

[3] = fluconazole-exposed Candida albicans growth modulators – fluorescence, retest, confirmation (AID 2467); type: functional, cell-based
[4] = molecular target: Serine/threonine-protein phosphatase (Candida dubliniensis (strain CD36 / CBS 7987 / NCPF 3949 / NRRLY-17841) (Yeast), UniProt B9W6M3); experiment: blockers of CaCl2-induced CDRE-lacZ signaling – S. cerevisiae, luminescence, secondary, dose response (AID 2388); type: functional, cell-based;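 note: yeast reporter cells carrying a calcineurin-responsive lacZ construct stimulated with calcium chloride; luminescent beta-galactosidase reporter signal in whole cells rather than isolated phosphatase activity; potency for inhibition where a drop in reporter signal means calcineurin blockade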
Chain of Serine/threonine-protein phosphatase (B9W6M3 whole entry): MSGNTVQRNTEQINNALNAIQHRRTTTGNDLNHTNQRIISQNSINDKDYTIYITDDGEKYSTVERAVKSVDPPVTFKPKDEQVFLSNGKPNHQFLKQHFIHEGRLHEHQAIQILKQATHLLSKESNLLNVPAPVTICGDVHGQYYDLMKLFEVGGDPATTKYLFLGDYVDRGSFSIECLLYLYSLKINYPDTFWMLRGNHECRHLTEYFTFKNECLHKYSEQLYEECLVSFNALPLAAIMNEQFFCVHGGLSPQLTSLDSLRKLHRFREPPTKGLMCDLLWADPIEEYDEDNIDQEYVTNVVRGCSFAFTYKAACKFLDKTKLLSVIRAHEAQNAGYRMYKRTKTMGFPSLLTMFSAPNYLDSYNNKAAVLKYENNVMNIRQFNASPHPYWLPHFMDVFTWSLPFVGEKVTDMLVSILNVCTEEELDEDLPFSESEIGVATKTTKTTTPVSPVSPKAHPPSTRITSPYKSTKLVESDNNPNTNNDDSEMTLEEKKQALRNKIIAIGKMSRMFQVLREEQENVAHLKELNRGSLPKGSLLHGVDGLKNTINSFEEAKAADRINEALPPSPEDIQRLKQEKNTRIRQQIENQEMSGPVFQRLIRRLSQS

[5] = NIH-3T3 fibroblast cytotoxicity, dose response, cytotoxicity control, cell-based, fluorescence, Alamar Blue, secondary assay (AID 2327); type: functional;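 note: NIH-3T3 mouse fibroblasts cultured with fluconazole at 8 µg/mL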
[6] = molecular target: T1, Probable nicotinate-nucleotide adenylyltransferase; type: functional, Staphylococcus aureus subsp. aureus N315
[7] = molecular target: Dual specificity tyrosine-phosphorylation-regulated kinase 1A (Rattus norvegicus, UniProt Q63470); type: biochemical, Homo sapiens
Escherichia coli [8] = experiment: microbe, parasite or virus in culture
CHO = CHO cell viability loss, potency – luminescence, cytotoxicity control for TLR9-MyD88 binding inhibitor project, dose response (AID 588339); type: functional, cell-based, hamster; conditions: Cricetulus griseus;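 note: CHO cells stably coexpressing TLR9 and MyD88 fusions from primary screen; compound exposure lasted 48 hours before viability readout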
Beta Lactamase = Beta Lactamase (Pseudomonas aeruginosa, UniProt Q932Y6); experiment: BLA reporter interference, concentration series – BLA reporter cells, FRET fluorescence, artefact control for TLR9-MyD88 binding inhibitor project, dose response (AID 588341); type: cell-based;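 note: cell based assay in CHO-K1 cells stably expressing beta-lactamase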
Escherichia coli [9] = experiment: microbe, parasite or virus in culture; remark: listed apart in the source
[10] = molecular target: 5-hydroxytryptamine receptor 5A (Homo sapiens, UniProt P47898); experiment: Counterscreen for agonists of OPRM1-OPRD1 heterodimerization: luminescence-based cell-based high throughput dose response assay to identify agonists of 5-hydroxytryptamine (serotonin) 5A receptor (HTR5A). [Related pubchem assays (depositor defined):AID504326, AID504355, AID504692, AID504904, AID504905]; type: functional
Chain of 5-hydroxytryptamine receptor 5A (P47898 whole entry): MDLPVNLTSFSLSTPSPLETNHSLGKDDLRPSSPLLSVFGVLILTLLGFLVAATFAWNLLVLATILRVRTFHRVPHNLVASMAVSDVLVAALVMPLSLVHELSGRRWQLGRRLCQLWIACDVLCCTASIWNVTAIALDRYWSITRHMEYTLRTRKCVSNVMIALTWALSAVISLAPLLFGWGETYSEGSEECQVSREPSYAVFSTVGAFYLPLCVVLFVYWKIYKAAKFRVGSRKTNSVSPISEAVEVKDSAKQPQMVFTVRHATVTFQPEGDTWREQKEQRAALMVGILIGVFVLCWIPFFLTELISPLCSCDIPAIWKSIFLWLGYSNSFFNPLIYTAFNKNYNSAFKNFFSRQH

[11] = molecular target: T2, Short transient receptor potential channel 4 (Mus musculus, UniProt Q9QUQ5); experiment: calcium entry via TRPC4 opening agents – cell-based, HEK293 TRPC4/mu-opioid, Fluo-4 calcium, dose response (AID 434937); type: functional
T2 sequence (Q9QUQ5 whole entry): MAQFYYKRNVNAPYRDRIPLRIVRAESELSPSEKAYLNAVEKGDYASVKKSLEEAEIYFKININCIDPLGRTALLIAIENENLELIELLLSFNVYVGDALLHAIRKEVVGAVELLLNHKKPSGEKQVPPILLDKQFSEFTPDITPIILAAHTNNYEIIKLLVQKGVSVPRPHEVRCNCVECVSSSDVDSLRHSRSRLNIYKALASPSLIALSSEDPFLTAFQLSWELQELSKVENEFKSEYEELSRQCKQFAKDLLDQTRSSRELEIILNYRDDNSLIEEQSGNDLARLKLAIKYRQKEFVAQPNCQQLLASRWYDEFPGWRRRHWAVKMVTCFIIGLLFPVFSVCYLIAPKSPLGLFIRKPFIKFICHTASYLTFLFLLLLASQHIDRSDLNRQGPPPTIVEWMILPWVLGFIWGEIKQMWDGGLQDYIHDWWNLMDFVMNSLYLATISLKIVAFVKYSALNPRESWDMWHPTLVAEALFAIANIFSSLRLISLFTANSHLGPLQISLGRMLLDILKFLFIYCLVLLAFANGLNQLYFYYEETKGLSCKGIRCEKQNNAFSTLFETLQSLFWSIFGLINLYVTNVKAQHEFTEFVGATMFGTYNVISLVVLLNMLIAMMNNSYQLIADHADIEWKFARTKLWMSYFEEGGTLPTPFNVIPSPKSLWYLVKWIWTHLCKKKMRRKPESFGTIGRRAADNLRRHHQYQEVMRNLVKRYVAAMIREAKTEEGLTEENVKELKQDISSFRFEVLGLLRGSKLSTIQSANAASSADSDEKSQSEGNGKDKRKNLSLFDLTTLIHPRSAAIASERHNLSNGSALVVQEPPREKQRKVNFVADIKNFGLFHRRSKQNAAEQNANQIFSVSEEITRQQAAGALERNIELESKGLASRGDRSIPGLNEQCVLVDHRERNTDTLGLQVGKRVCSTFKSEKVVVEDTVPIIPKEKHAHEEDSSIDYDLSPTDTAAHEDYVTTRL

Mu-type opioid receptor = Mu-type opioid receptor (Homo sapiens, UniProt P35372); experiment: Counterscreen for agonists of heterodimerization of the mu 1 (OPRM1) and delta 1 (OPRD1) opioid receptors: Luminescence-based cell-based high throughput dose response assay to identify agonists of OPRM1 homodimerization.; type: functional;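 note: U2OS cells expressing OPRM1 and beta-arrestin as split beta-galactosidase partners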
[12] = molecular target: Delta-type opioid receptor (Homo sapiens, UniProt P41143); experiment: Counterscreen for agonists of heterodimerization of the mu 1 (OPRM1) and delta 1 (OPRD1) opioid receptors: Luminescence-based cell-based high throughput dose response assay to identify agonists of OPRD1 homodimerization. [Related pubchem assays (depositor defined):AID504326, AID504355, AID504692, AID504904, AID504905]; type: functional
[13] = molecular target: Beta-2 adrenergic receptor (Homo sapiens, UniProt P07550); experiment: ADRB2 activation measured by internalization – cell-based, FAP fluorogen, flow cytometry, cherry pick 1, dose response (AID 588763); type: functional
Chain of Beta-2 adrenergic receptor (P07550 whole entry): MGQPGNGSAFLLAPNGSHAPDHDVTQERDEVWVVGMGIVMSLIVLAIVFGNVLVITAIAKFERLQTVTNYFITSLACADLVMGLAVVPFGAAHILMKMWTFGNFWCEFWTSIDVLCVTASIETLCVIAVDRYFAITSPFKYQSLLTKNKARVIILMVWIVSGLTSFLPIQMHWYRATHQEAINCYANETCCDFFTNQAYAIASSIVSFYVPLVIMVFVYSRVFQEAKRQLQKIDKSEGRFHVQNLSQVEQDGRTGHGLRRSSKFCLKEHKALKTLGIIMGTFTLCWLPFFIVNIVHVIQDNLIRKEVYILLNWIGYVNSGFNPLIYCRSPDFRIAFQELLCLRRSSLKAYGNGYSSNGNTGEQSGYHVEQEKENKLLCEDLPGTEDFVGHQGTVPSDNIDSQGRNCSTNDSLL

INS1 = experiment: INS-1E survival protection against cytokine death – cell-based, luminescence, retest, dose response (AID 449756); type: functional; conditions: Rattus norvegicus;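 note: cell death triggered by IL-1 beta plus TNF-alpha plus IFN-gamma mixture; protective hits raise ATP signal compared with cytokine alone wells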
Insulin-degrading enzyme [14] = molecular target: T3, Insulin-degrading enzyme (Homo sapiens, UniProt P14735); experiment: recombinant IDE activation, cell-free – biochemical, fluorescence polarization, counter-screen for IDE activator project, dose response (AID 588681)
T3 sequence (P14735 whole entry): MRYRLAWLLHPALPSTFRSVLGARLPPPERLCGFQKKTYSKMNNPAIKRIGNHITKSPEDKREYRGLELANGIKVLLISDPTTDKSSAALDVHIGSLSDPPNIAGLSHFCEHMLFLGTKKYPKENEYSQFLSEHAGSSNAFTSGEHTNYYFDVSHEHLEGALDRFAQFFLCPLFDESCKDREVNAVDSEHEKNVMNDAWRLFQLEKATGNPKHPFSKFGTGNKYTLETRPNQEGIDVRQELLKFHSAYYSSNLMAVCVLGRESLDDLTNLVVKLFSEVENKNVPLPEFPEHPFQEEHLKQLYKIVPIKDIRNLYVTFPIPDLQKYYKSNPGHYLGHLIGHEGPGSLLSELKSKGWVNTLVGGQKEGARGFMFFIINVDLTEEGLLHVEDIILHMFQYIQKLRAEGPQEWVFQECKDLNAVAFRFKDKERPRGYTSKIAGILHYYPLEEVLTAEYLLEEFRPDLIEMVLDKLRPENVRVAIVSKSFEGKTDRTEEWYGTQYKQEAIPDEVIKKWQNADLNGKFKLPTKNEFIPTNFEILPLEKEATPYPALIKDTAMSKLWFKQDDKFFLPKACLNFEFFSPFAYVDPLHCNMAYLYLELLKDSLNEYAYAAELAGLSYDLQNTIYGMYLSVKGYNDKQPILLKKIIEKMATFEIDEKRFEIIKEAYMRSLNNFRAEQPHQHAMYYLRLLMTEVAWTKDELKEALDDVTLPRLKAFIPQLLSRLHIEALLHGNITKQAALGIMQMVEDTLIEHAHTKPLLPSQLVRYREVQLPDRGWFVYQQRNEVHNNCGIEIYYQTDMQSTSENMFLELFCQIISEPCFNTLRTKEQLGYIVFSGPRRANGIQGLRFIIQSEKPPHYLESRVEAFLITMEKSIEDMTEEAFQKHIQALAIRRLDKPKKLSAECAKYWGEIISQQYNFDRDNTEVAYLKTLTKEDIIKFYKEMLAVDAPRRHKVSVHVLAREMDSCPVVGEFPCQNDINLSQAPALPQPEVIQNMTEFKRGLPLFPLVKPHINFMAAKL

Insulin-degrading enzyme [15] = molecular target: T3, Insulin-degrading enzyme; experiment: cellular IDE activation of Abeta substrate cleavage – fluorescence polarization, HEK cells, dose response (AID 588439); type: functional, cell-based
HEK293 [16] = experiment: optical interference in Abeta FP readout, dose response, artefact control for IDE activator project, biochemical, fluorescence polarization (AID 588442); type: functional, cell-based; conditions: Homo sapiens
HEK293 [17] = experiment: membrane integrity loss in HEK cells – cell-based, fluorescence, cytotoxicity control for IDE activator project, dose response (AID 588440); type: functional; conditions: Homo sapiens;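 note: cytotoxicity by LDH release measuring loss of membrane integrity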
[18] = molecular target: Voltage-gated inwardly rectifying potassium channel KCNH2 (Homo sapiens, UniProt Q12809); conditions: Potency;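 note: confirmatory quantitative high-throughput screen measuring inhibition of hERG channel activity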
Chain of Voltage-gated inwardly rectifying potassium channel KCNH2 (Q12809 whole entry): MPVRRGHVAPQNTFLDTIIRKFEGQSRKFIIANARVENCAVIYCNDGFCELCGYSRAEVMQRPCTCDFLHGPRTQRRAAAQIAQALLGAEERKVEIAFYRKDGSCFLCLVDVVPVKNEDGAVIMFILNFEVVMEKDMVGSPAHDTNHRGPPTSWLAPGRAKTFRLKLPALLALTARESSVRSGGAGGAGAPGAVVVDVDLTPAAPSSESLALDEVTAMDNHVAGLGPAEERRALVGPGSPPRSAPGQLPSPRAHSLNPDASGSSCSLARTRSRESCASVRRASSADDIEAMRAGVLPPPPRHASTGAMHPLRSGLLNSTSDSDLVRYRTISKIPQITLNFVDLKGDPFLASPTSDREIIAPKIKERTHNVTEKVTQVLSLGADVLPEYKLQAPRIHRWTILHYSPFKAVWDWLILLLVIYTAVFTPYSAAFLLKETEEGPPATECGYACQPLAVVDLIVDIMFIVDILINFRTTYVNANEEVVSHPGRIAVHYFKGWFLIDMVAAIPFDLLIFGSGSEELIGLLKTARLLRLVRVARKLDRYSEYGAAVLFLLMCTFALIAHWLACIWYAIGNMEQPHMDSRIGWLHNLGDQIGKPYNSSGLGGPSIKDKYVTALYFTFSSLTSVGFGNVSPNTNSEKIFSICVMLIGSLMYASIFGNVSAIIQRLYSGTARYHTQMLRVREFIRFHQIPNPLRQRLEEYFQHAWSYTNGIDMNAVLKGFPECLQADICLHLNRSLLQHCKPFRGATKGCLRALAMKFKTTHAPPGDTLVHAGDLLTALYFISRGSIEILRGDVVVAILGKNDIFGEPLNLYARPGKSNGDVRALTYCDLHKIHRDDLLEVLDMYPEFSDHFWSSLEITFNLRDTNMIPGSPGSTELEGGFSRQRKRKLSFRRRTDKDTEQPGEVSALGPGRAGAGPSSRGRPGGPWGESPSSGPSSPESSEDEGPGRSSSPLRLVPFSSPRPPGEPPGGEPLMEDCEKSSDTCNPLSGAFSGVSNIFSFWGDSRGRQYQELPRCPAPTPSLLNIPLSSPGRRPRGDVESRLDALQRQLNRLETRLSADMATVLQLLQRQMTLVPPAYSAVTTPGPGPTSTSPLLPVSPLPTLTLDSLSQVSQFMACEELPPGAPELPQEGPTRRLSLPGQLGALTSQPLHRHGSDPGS

[19] = molecular target: Heat shock protein HSP 90-alpha (Homo sapiens, UniProt P07900); type: functional, organism-based
Beta-galactosidase = Beta-galactosidase (Escherichia coli, UniProt Q8VNN2); experiment: PubChem AID 485352; type: functional
Chain of Beta-galactosidase (Q8VNN2 whole entry): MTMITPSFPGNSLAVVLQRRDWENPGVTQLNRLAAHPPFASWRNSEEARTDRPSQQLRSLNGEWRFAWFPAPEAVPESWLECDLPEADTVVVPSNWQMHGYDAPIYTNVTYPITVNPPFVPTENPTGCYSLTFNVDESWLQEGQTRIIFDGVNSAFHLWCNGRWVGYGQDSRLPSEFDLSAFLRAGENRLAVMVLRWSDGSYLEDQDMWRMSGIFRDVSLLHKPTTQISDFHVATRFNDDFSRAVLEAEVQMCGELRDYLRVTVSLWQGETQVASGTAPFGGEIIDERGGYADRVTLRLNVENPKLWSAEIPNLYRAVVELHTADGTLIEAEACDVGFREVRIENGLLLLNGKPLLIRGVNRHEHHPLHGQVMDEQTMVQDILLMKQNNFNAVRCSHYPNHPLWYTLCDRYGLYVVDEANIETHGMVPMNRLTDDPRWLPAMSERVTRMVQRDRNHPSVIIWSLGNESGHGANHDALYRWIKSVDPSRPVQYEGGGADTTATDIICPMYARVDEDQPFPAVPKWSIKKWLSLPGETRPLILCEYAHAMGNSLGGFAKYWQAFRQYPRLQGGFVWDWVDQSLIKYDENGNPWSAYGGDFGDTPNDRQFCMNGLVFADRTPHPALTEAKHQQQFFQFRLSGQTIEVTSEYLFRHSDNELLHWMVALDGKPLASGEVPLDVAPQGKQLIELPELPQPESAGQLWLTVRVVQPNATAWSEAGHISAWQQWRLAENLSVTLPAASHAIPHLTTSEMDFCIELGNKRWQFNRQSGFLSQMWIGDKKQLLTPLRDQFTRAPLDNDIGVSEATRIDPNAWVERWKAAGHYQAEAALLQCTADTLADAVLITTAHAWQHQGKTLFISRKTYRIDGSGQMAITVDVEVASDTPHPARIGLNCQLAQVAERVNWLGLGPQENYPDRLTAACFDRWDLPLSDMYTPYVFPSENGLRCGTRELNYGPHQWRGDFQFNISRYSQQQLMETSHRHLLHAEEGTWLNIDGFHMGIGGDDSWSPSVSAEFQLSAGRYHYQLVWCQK

[20] = molecular target: Type-1 angiotensin II receptor (Homo sapiens, UniProt P30556); experiment: antagonism of angiotensin II type 1 receptor – cell-based, uHTS hits, selectivity assay for APJ receptor antagonist project, dose response (AID 463214); type: functional;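 note: antagonist potency against angiotensin II stimulated AT1 response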
Chain of Type-1 angiotensin II receptor (P30556 whole entry): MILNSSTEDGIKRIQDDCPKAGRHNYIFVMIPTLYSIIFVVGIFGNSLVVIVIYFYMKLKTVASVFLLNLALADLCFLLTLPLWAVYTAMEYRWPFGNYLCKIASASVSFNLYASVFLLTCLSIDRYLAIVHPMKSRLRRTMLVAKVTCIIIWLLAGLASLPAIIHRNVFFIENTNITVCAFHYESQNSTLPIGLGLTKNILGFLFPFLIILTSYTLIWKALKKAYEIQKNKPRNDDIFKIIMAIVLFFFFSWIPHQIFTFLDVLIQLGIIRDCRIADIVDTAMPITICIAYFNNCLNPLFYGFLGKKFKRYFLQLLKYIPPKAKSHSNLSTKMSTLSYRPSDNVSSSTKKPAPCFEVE

[21] = Luminescence Cell-Based Dose Response HTS to Identify Activators of Luciferase Translation or Activity in H4 […] Cells. [Related pubchem assays: 1829 (Project Summary), 1814 (Primary HTS)]; type: functional
H4 = experiment: Luminescence Cell-Based Dose Response HTS to Identify Activators of 5'UTR Stem-Loop Driven Prion Protein mRNA Translation in H4 Neuroglioblastoma Cells. [Related pubchem assays: 1829 (Project Summary), 1814 (Primary HTS)]; type: functional; conditions: Homo sapiens
Cysteine protease ATG4B = molecular target: T4, Cysteine protease ATG4B (Homo sapiens, UniProt Q9Y4P1); type: functional;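 note: Fluorescence-based dose-response confirmation assay measuring inhibition of ATG4B activity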
T4 sequence (Q9Y4P1 whole entry): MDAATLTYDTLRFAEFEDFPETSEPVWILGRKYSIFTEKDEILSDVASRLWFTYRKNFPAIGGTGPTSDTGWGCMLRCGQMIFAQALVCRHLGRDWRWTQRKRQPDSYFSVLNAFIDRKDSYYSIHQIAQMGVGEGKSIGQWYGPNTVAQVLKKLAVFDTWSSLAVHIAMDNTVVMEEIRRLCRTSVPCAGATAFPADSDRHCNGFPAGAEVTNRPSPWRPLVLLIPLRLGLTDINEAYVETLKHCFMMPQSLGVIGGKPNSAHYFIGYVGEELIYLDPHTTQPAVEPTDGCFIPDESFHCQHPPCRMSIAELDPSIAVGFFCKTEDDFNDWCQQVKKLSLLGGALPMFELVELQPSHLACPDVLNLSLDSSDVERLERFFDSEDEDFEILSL

Phospholipase A2 = Phospholipase A2 (Homo sapiens, UniProt P04054); type: functional;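 note: confirmatory dose-response counterscreen on phospholipase A2, testing hits that came from an ultra-high-throughput screen for ATG4B inhibitors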
Chain of Phospholipase A2 (P04054 whole entry): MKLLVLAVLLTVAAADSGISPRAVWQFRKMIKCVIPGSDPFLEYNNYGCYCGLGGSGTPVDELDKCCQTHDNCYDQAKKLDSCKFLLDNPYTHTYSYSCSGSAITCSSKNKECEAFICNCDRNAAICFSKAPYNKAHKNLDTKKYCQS

CCN(Cc1ccccc1)S(=O)(=O)c1ccc(C(=O)Nc2nnc(-c3ccccc3OC)o2)cc1
EC50 [1]: 19.9 µM (active)
IC50 [2]: 56.5 µM (active)
EC50 [3]: 0.468 µM (active)
EC50 [4]: > 180 µM (inactive)
EC50 [5]: 39.3 µM (active)
IC50 [6]: 8.19 µM (active)

NC1=NC(=O)/C(=C\c2ccc(-c3ccc(Cl)cc3)o2)S1
AC50 [7]: 0.195 µM (active)

O=C(C[C@H]1C[C@H](C(=O)N2CCOCC2)[C@@]2(CCC3CCCC3)c3[nH]c4cc(-c5ccco5)ccc4c3CCN2C1=O)NCCCn1ccnc1
AC50 (Escherichia coli [8]): 59.9 µM (active)

O=[N+]([O-])c1ccc(-c2ccc(/C=N/Nc3nc(NCc4ccccc4)nc(N4CCOCC4)n3)o2)cc1
IC50 (CHO): 15.9 µM (inactive)
IC50 (Beta Lactamase): 4.69 µM (active)

CCCCN(C)CCn1c(=S)[nH]c2ncccc2c1=O
AC50 (Escherichia coli [9]): 29.7 µM (active)

Cc1ccc(Cn2nc(C)c(NC(=O)c3cc(C)no3)c2C)cc1
AC50 (Escherichia coli [8]): > 380 µM (inactive)

Cc1ccc(-n2cc(CNC(C)c3cnn(C)c3)c(-c3ccc(F)cc3)n2)cc1 (configuration not stated)
EC50 [10]: > 92.5 µM (inactive)
EC50 [11]: 1.88 µM (active)
EC50 (Mu-type opioid receptor): 2.42 µM (active)
EC50 [12]: 37.3 µM (inactive)

CCOC(=O)c1ccc(NC(=O)Cc2coc3cc4c(cc23)CCC4)cc1
EC50 [13]: 7.53 µM (active)

C=CCc1c(C)nc(C)nc1N/N=C/c1ccc(N(C)C)cc1
AC50 (Escherichia coli [9]): 26.4 µM (active)
AC50 (INS1): 2.54 µM (active)

CCC1CCCCN1S(=O)(=O)c1ccc(S(=O)(=O)N2CCN(S(=O)(=O)CC)CC2)cc1 (configuration not stated)
EC50 (Insulin-degrading enzyme [14]): > 54.7 µM (inactive)
EC50 (Insulin-degrading enzyme [15]): > 54.7 µM (inactive)
EC50 (HEK293 [16]): > 55.9 µM (inactive)
IC50 (HEK293 [17]): > 9.91 µM (active)

NC1(C(=O)O)CC1
AC50 [18]: 31.6 µM (inconclusive)

C=CCc1c(C)c(C#N)c2nc3ccccc3n2c1NCCN(C)C
EC50 [1]: > 150 µM (inactive)
EC50 [3]: 1.27 µM (active)
AC50 [19]: 4.45 µM (active)
EC50 [4]: > 180 µM (inactive)
EC50 [5]: > 160 µM (inactive)

O=C(CNS(=O)(=O)c1ccccc1)OCC(=O)c1cccc([N+](=O)[O-])c1
EC50 (Beta-galactosidase): > 40 µM (inactive)
IC50 [20]: 38.1 µM (not active)

CCOC(=O)C1=C(C)NC(C)=C(C(=O)OC)C1c1cccc(Cl)c1Cl (configuration not stated) [FELODIPINE]
AC50 [18]: 20 µM (inconclusive)

COc1ccc(S(=O)(=O)N2CCCC(C(=O)Nc3ccc(NC(=O)c4ccccn4)cc3)C2)cc1 (configuration not stated)
EC50 [21]: > 120 µM (not active)
EC50 (H4): 5.33 µM (active)
EC50 [13]: 0.0809 µM (active)

CC1(C)C2CCC1(C)C1(C2)NC(=O)c2ccccc2O1 (configuration not stated)
IC50 (Cysteine protease ATG4B): 14.8 µM (active)
IC50 (Phospholipase A2): 11 µM (active)
